Measurements reported in ChEMBL document CHEMBL3301472, “MMV Malaria Box HIV and cytotoxicity screening”.

Assays:
[1] = system: Human immunodeficiency virus 1; assay: MMV: HIV CXCR4-tropic env HxB2 pseudovirus assay produces luciferase signal in lieu of replicating viral particles Day 3 pi, U87-CD4-CXCR4, % inhibition at 5 mM compound; assay type: functional; set-up: dose or concentration left out as unconfirmed; conditions: Human immunodeficiency virus 1, HxB2, U87.CD4.CXCR4, 72 h
[2] = MMV: MTT Cytotoxicity Assay Day 3 pi, U87-CD4-CCR5 cells, % cell death @ 5mM compound; assay type: toxicity, cell-based; conditions: human, u87-cd4-ccr5, 5000 µM
[3] = MMV: MTT Cytotoxicity Assay Day 3 pi, U87-CD4-CXCR4 cells, % cell death @ 5mM compound; assay type: toxicity, cell-based; conditions: human, u87-cd4-cxcr4, 5000 µM
[4] = MMV: MTT Cytotoxicity Assay Day 7 pi of Assay #6 (compound washed out Day 1 pi), U87-CD4-CCR5 cells, % cell death @ 5mM compound; assay type: toxicity, cell-based; conditions: human, u87-cd4-ccr5, 5000 µM
[5] = MMV: MTT Cytotoxicity Assay Day 7 pi of Assay #7 (compound washed out Day 1 pi), U87-CD4-CXCR4 cells, % cell death @ 5mM compound; assay type: toxicity, cell-based; conditions: human, u87-cd4-cxcr4, 5000 µM
[6] = MMV: MTT Cytotoxicity Assay Day 7 pi of Assay #10 (NO washout), U87-CD4-CCR5 cells, % cell death @ 5mM compound; assay type: toxicity, cell-based; conditions: human, u87-cd4-ccr5, 5000 µM
[7] = MMV: MTT Cytotoxicity Assay Day 7 pi of Assay #11 (NO washout), U87-CD4-CXCR4 cells, % cell death @ 5mM compound; assay type: toxicity, cell-based; conditions: human, u87-cd4-cxcr4, 5000 µM

In the case of `COc1ccc(C=C2SC(Nc3ccc(F)cc3)=NC2=O)c(OC)c1`, the inhibition [1] is reported as 4%, the “% Cell Death” value [2] is reported as 25 and the “% Cell Death” value [3] is reported as 28. The “% Cell Death” value [4] was -49, the “% Cell Death” value [5] was 0 and the “% Cell Death” value [6] was 96. For the same molecule, the “% Cell Death” value [7] was 65.
In the case of `COc1ccc2c(=O)cc(C(Cl)(Cl)Cl)oc2c1`, the inhibition [1] is reported as 8%, the “% Cell Death” value [2] is reported as 90 and the “% Cell Death” value [3] is reported as 41. For the same molecule, the “% Cell Death” value [4] was 23, the “% Cell Death” value [5] was 23 and the “% Cell Death” value [6] was 100. The “% Cell Death” value [7] was 95.
With `CC(C)(C)c1ccc(C2CC3=Nc4ccccc4N(C(=O)c4ccccc4Cl)C(c4ccc(F)cc4)C3=C(O)C2)cc1` (configuration not stated) the inhibition [1] was -1%, the “% Cell Death” value [2] was -12 and the “% Cell Death” value [3] was 31. The “% Cell Death” value [4] was 8, the “% Cell Death” value [5] was 17 and the “% Cell Death” value [6] was 28. The “% Cell Death” value [7] was 5.
With `CCC1(C)CC(CCNCc2ccccc2O)(c2ccc(C)cc2)CCO1` (configuration not stated) the inhibition [1] was 0%, the “% Cell Death” value [2] was -22 and the “% Cell Death” value [3] was 14. For the same molecule, the “% Cell Death” value [4] was 9, the “% Cell Death” value [5] was 0 and the “% Cell Death” value [6] was 27. The “% Cell Death” value [7] was 19.
For `Oc1c(CN2CCN(c3ccccc3F)CC2)cc(Br)c2cccnc12`, the inhibition [1] was 1%, the “% Cell Death” value [2] was 43 and the “% Cell Death” value [3] was 51. The “% Cell Death” value [4] was 53, the “% Cell Death” value [5] was 51 and the “% Cell Death” value [6] was 92. For the same molecule, the “% Cell Death” value [7] was 34.
For `CCCCCCn1c(=N)n(CC(O)COc2cccc(C)c2)c2ccccc21.Cl` (configuration not stated), the inhibition [1] was 2%, the “% Cell Death” value [2] was 43 and the “% Cell Death” value [3] was 17. The “% Cell Death” value [4] was 33, the “% Cell Death” value [5] was -16 and the “% Cell Death” value [6] was 71. For the same molecule, the “% Cell Death” value [7] was 50.
In the case of `COc1ccc(-c2nc3cc(Cc4ccc5[nH]c(-c6ccc(OC)cc6)nc5c4)ccc3[nH]2)cc1`, the inhibition [1] is reported as 1%, the “% Cell Death” value [2] is reported as -6 and the “% Cell Death” value [3] is reported as 23. For the same molecule, the “% Cell Death” value [4] was -21, the “% Cell Death” value [5] was -21 and the “% Cell Death” value [6] was 4. The “% Cell Death” value [7] was 6.
With `COc1cc(C(=O)Nc2nc3c(cc4c5c(cccc53)CC4)s2)cc(OC)c1OC` the inhibition [1] was 0%, the “% Cell Death” value [2] was 105 and the “% Cell Death” value [3] was 56. For the same molecule, the “% Cell Death” value [4] was 42, the “% Cell Death” value [5] was 68 and the “% Cell Death” value [6] was 136. The “% Cell Death” value [7] was 110.
For `CCOC(=O)c1cnc2ccc(OC)cc2c1NCc1ccccc1`, the inhibition [1] was -2%, the “% Cell Death” value [2] was -52 and the “% Cell Death” value [3] was 36. The “% Cell Death” value [4] was -10, the “% Cell Death” value [5] was 12 and the “% Cell Death” value [6] was -9. For the same molecule, the “% Cell Death” value [7] was 46.
For `O=C(NCc1ccco1)C1CCN(S(=O)(=O)c2ccc(Br)cc2)CC1`, the inhibition [1] was 8%, the “% Cell Death” value [2] was 14 and the “% Cell Death” value [3] was 32. The “% Cell Death” value [4] was 5, the “% Cell Death” value [5] was -9 and the “% Cell Death” value [6] was -12. For the same molecule, the “% Cell Death” value [7] was -5.
For `Cc1cc(NCCN2CCCCC2)c2ccc3ccccc3c2n1`, the inhibition [1] was 1%, the “% Cell Death” value [2] was 64 and the “% Cell Death” value [3] was 34. For the same molecule, the “% Cell Death” value [4] was 30, the “% Cell Death” value [5] was 16 and the “% Cell Death” value [6] was 31. For the same molecule, the “% Cell Death” value [7] was 5.
